# From PubChem BioAssay AID1963847 (Molecular Pharmacology Branch, DTP, NCI, 2024)
# Test system: 415267-285-R-J2-PDC complex spheroid viability
# Assay: Anticancer human tumor 415267-285-R-J2-PDC patient-derived breast carcinoma cell line growth inhibition [POLQ]
# Conditions: for IC50: curve of first compound; for viability, T/C: stronger effect = lower value
# Outline: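 Three-cell-type spheroids modelling solid tumor plus stroma served as the readout system; POL inhibitors were tested individually and in combination, concentration ranges set by clinical Cmax where known.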
# [1] = second compound 0.0316 µM, first compound 0.00316 µM
# [2] = second compound 0.0316 µM, first compound 0.01 µM
# [3] = second compound 0.0316 µM, first compound 0.0316 µM
# [4] = second compound 0.0316 µM, first compound 0.1 µM
# [5] = second compound 0.0316 µM, first compound 0.316 µM
# [6] = second compound 0.0316 µM, first compound 1 µM
# [7] = second compound 0.1 µM, first compound 0.00316 µM
# [8] = second compound 0.1 µM, first compound 0.01 µM
# [9] = second compound 0.1 µM, first compound 0.0316 µM
# [10] = second compound 0.1 µM, first compound 0.1 µM
# [11] = second compound 0.1 µM, first compound 0.316 µM
# [12] = second compound 0.1 µM, first compound 1 µM
# [13] = second compound 0.316 µM, first compound 0.00316 µM
# [14] = second compound 0.316 µM, first compound 0.01 µM
# [15] = second compound 0.316 µM, first compound 0.0316 µM
# [16] = second compound 0.316 µM, first compound 0.1 µM
# [17] = second compound 0.316 µM, first compound 0.316 µM
# [18] = second compound 0.316 µM, first compound 1 µM
# [19] = second compound 1 µM, first compound 0.00316 µM
# [20] = second compound 1 µM, first compound 0.01 µM
# [21] = second compound 1 µM, first compound 0.0316 µM
# [22] = second compound 1 µM, first compound 0.1 µM
# [23] = second compound 1 µM, first compound 0.316 µM
# [24] = second compound 1 µM, first compound 1 µM
# [25] = second compound 3.16 µM, first compound 0.00316 µM
# [26] = second compound 3.16 µM, first compound 0.01 µM
# [27] = second compound 3.16 µM, first compound 0.0316 µM
# [28] = second compound 3.16 µM, first compound 0.1 µM
# [29] = second compound 3.16 µM, first compound 0.316 µM
# [30] = second compound 3.16 µM, first compound 1 µM
# [31] = second compound 10 µM, first compound 0.00316 µM
# [32] = second compound 10 µM, first compound 0.01 µM
# [33] = second compound 10 µM, first compound 0.0316 µM
# [34] = second compound 10 µM, first compound 0.1 µM
# [35] = second compound 10 µM, first compound 0.316 µM
# [36] = second compound 10 µM, first compound 1 µM
# [37] = second compound 0.0316 µM, first compound 3.16 µM
# [38] = second compound 0.0316 µM, first compound 10 µM
# [39] = second compound 0.1 µM, first compound 3.16 µM
# [40] = second compound 0.1 µM, first compound 10 µM
# [41] = second compound 0.316 µM, first compound 3.16 µM
# [42] = second compound 0.316 µM, first compound 10 µM
# [43] = second compound 1 µM, first compound 3.16 µM
# [44] = second compound 1 µM, first compound 10 µM
# [45] = second compound 3.16 µM, first compound 3.16 µM
# [46] = second compound 3.16 µM, first compound 10 µM
# [47] = second compound 10 µM, first compound 3.16 µM
# [48] = second compound 10 µM, first compound 10 µM
# 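Note: spheroids exposed to compounds for one week before readout.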
# 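Throughout, for viability, T/C: luminescence used as stand-in measure of viable cells; 100% = DMSO vehicle control viability.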
smiles,measurement,setting,value
C=CCn1c(=O)c2cnc(Nc3ccc(N4CCN(C)CC4)cc3)nc2n1-c1cccc(C(C)(C)O)n1 + Nc1ccc(C#CCN(C(=O)Cc2ncc(C(F)(F)F)cc2C(F)(F)F)c2ccc(F)cc2)nn1,IC50,second compound 0.0316 µM,447 nM
same,IC50,second compound 0.1 µM,404 nM
same,IC50,second compound 0.316 µM,427 nM
same,IC50,second compound 1 µM,396 nM
same,IC50,second compound 3.16 µM,342 nM
same,IC50,second compound 10 µM,318 nM
same,"viability, T/C",[1],95.1%
same,"viability, T/C",[2],102%
same,"viability, T/C",[3],94.8%
same,"viability, T/C",[4],98.2%
same,"viability, T/C",[5],69%
same,"viability, T/C",[6],5.9%
same,"viability, T/C",[7],107%
same,"viability, T/C",[8],104%
same,"viability, T/C",[9],102%
same,"viability, T/C",[10],87.6%
same,"viability, T/C",[11],62.2%
same,"viability, T/C",[12],6.38%
same,"viability, T/C",[13],108%
same,"viability, T/C",[14],108%
same,"viability, T/C",[15],86.9%
same,"viability, T/C",[16],96.3%
same,"viability, T/C",[17],65.5%
same,"viability, T/C",[18],5.51%
same,"viability, T/C",[19],104%
same,"viability, T/C",[20],95%
same,"viability, T/C",[21],101%
same,"viability, T/C",[22],87%
same,"viability, T/C",[23],61.1%
same,"viability, T/C",[24],4.94%
same,"viability, T/C",[25],106%
same,"viability, T/C",[26],93.1%
same,"viability, T/C",[27],95.3%
same,"viability, T/C",[28],92.5%
same,"viability, T/C",[29],53%
same,"viability, T/C",[30],7.32%
same,"viability, T/C",[31],94.3%
same,"viability, T/C",[32],95.5%
same,"viability, T/C",[33],107%
same,"viability, T/C",[34],91.7%
same,"viability, T/C",[35],50.3%
same,"viability, T/C",[36],5.62%
CCCS(=O)(=O)Nc1ccc(F)c(C(=O)c2c[nH]c3ncc(-c4ccc(Cl)cc4)cc23)c1F + Nc1ccc(C#CCN(C(=O)Cc2ncc(C(F)(F)F)cc2C(F)(F)F)c2ccc(F)cc2)nn1,IC50,second compound 0.0316 µM,> 10000 nM
same,IC50,second compound 0.1 µM,> 10000 nM
same,IC50,second compound 0.316 µM,> 10000 nM
same,IC50,second compound 1 µM,> 10000 nM
same,IC50,second compound 3.16 µM,> 10000 nM
same,IC50,second compound 10 µM,> 10000 nM
same,"viability, T/C",[3],92%
same,"viability, T/C",[4],111%
same,"viability, T/C",[5],102%
same,"viability, T/C",[6],90.8%
same,"viability, T/C",[37],90.6%
same,"viability, T/C",[38],89.6%
same,"viability, T/C",[9],117%
same,"viability, T/C",[10],105%
same,"viability, T/C",[11],91.1%
same,"viability, T/C",[12],107%
same,"viability, T/C",[39],109%
same,"viability, T/C",[40],90.3%
same,"viability, T/C",[15],114%
same,"viability, T/C",[16],109%
same,"viability, T/C",[17],108%
same,"viability, T/C",[18],95.2%
same,"viability, T/C",[41],96.2%
same,"viability, T/C",[42],89.2%
same,"viability, T/C",[21],110%
same,"viability, T/C",[22],107%
same,"viability, T/C",[23],105%
same,"viability, T/C",[24],100%
same,"viability, T/C",[43],105%
same,"viability, T/C",[44],82.3%
same,"viability, T/C",[27],107%
same,"viability, T/C",[28],112%
same,"viability, T/C",[29],107%
same,"viability, T/C",[30],104%
same,"viability, T/C",[45],94.2%
same,"viability, T/C",[46],92.9%
same,"viability, T/C",[33],95.5%
same,"viability, T/C",[34],105%
same,"viability, T/C",[35],104%
same,"viability, T/C",[36],98.4%
same,"viability, T/C",[47],104%
same,"viability, T/C",[48],90.8%
CNCc1ccc(-c2[nH]c3cc(F)cc4c3c2CCNC4=O)cc1 + Nc1ccc(C#CCN(C(=O)Cc2ncc(C(F)(F)F)cc2C(F)(F)F)c2ccc(F)cc2)nn1,IC50,second compound 0.0316 µM,> 10000 nM
same,IC50,second compound 0.1 µM,> 10000 nM
same,IC50,second compound 0.316 µM,> 10000 nM
same,IC50,second compound 1 µM,> 10000 nM
same,IC50,second compound 3.16 µM,> 10000 nM
same,IC50,second compound 10 µM,> 10000 nM
same,"viability, T/C",[3],98.9%
same,"viability, T/C",[4],107%
same,"viability, T/C",[5],91.1%
same,"viability, T/C",[6],84.6%
same,"viability, T/C",[37],91.9%
same,"viability, T/C",[38],103%
same,"viability, T/C",[9],89.7%
same,"viability, T/C",[10],105%
same,"viability, T/C",[11],93.2%
same,"viability, T/C",[12],87.9%
same,"viability, T/C",[39],101%
same,"viability, T/C",[40],102%
same,"viability, T/C",[15],98.9%
same,"viability, T/C",[16],93.2%
same,"viability, T/C",[17],91.4%
same,"viability, T/C",[18],106%
same,"viability, T/C",[41],94.4%
same,"viability, T/C",[42],108%
same,"viability, T/C",[21],97.3%
same,"viability, T/C",[22],98.7%
same,"viability, T/C",[23],92.9%
same,"viability, T/C",[24],98.6%
same,"viability, T/C",[43],106%
same,"viability, T/C",[44],118%
same,"viability, T/C",[27],91.1%
same,"viability, T/C",[28],100%
same,"viability, T/C",[29],94%
same,"viability, T/C",[30],96.5%
same,"viability, T/C",[45],109%
same,"viability, T/C",[46],107%
same,"viability, T/C",[33],101%
same,"viability, T/C",[34],97.6%
same,"viability, T/C",[35],105%
same,"viability, T/C",[36],105%
same,"viability, T/C",[47],113%
same,"viability, T/C",[48],110%
COc1cccc(OCCCN)c1-c1cc(Nc2cnc(C#N)cn2)n[nH]1 + Nc1ccc(C#CCN(C(=O)Cc2ncc(C(F)(F)F)cc2C(F)(F)F)c2ccc(F)cc2)nn1,IC50,second compound 0.0316 µM,7.16 nM
same,IC50,second compound 0.1 µM,6.19 nM
same,IC50,second compound 0.316 µM,6.72 nM
same,IC50,second compound 1 µM,5.96 nM
same,IC50,second compound 3.16 µM,5.77 nM
same,IC50,second compound 10 µM,5.9 nM
same,"viability, T/C",[1],99%
same,"viability, T/C",[2],29.9%
same,"viability, T/C",[3],6.2%
same,"viability, T/C",[4],5.95%
same,"viability, T/C",[5],4.32%
same,"viability, T/C",[6],4.9%
same,"viability, T/C",[7],94.9%
same,"viability, T/C",[8],18%
same,"viability, T/C",[9],5.46%
same,"viability, T/C",[10],5.78%
same,"viability, T/C",[11],5.23%
same,"viability, T/C",[12],3.98%
same,"viability, T/C",[13],119%
same,"viability, T/C",[14],13.8%
same,"viability, T/C",[15],5.29%
same,"viability, T/C",[16],4.56%
same,"viability, T/C",[17],4.96%
same,"viability, T/C",[18],4.07%
same,"viability, T/C",[19],101%
same,"viability, T/C",[20],8.35%
same,"viability, T/C",[21],5.83%
same,"viability, T/C",[22],5.25%
same,"viability, T/C",[23],5.41%
same,"viability, T/C",[24],4.11%
same,"viability, T/C",[25],94.9%
same,"viability, T/C",[26],9.02%
same,"viability, T/C",[27],5.49%
same,"viability, T/C",[28],5.19%
same,"viability, T/C",[29],6.6%
same,"viability, T/C",[30],4.85%
same,"viability, T/C",[31],100%
same,"viability, T/C",[32],7.29%
same,"viability, T/C",[33],6.73%
same,"viability, T/C",[34],5.13%
same,"viability, T/C",[35],4.64%
same,"viability, T/C",[36],4.87%
